# In PMC5218480 (PLoS ONE, 2017):
# Tested on: MV-4-11 cells
# Assay: Gene expression microarray analysis (Affymetrix PrimeView) and GSEA
# Assay type: cell-based, human
# Parameters: RFU PODN (11730768_x_at) / Fold change /veh PODN (11730768_x_at) / RFU LINC00158 (11744669_a_at) / Fold change /veh LINC00158 (11744669_a_at) / RFU DUSP10 (11751237_a_at) / Fold change /veh DUSP10 (11751237_a_at) / RFU ID3 (11757404_x_at) / Fold change /veh ID3 (11757404_x_at) / RFU PLEKHG5 (11737974_s_at) / Fold change /veh PLEKHG5 (11737974_s_at) / RFU LRRC4B (11730491_at) / Fold change /veh LRRC4B (11730491_at) / RFU GIMAP4 (11747438_a_at) / Fold change /veh GIMAP4 (11747438_a_at) / RFU KRT8 (11758183_x_at) / Fold change /veh KRT8 (11758183_x_at) / RFU CNN1 (11734310_a_at) / Fold change /veh CNN1 (11734310_a_at) / RFU VPS37D (11726825_at) / Fold change /veh VPS37D (11726825_at) / RFU C10orf10 (11716522_x_at) / Fold change /veh C10orf10 (11716522_x_at) / RFU KIR2DL2 /// KIR2DL4 /// KIR2DL5A /// KIR2DL5B /// KIR2DS1 /// KIR2DS2 /// KIR2DS3 /// KIR2DS4 /// KIR3DL3 /// KIR3DL3 /// KIR3DS1 (11738374_at) / Fold change /veh KIR2DL2 /// KIR2DL4 /// KIR2DL5A /// KIR2DL5B /// KIR2DS1 /// KIR2DS2 /// KIR2DS3 /// KIR2DS4 /// KIR3DL3 /// KIR3DL3 /// KIR3DS1 (11738374_at) / RFU C1QL1 (11718748_at) / Fold change /veh C1QL1 (11718748_at) / RFU TMPRSS4 (11747572_a_at) / Fold change /veh TMPRSS4 (11747572_a_at) / RFU HAMP (11756126_x_at) / Fold change /veh HAMP (11756126_x_at) / RFU RNFT2 (11725882_a_at) / Fold change /veh RNFT2 (11725882_a_at) / RFU NR4A2 (11747474_a_at) / Fold change /veh NR4A2 (11747474_a_at) / RFU ABCC12 (11746883_a_at) / Fold change /veh ABCC12 (11746883_a_at) / RFU TMEM136 (11760407_x_at) / Fold change /veh TMEM136 (11760407_x_at) / RFU CLDN22 /// WWC2 (11732394_at) / Fold change /veh CLDN22 /// WWC2 (11732394_at) / RFU HLA-DPB1 (11760878_x_at) / Fold change /veh HLA-DPB1 (11760878_x_at) / RFU SPINT1 (11716480_a_at) / Fold change /veh SPINT1 (11716480_a_at) / RFU GAP43 (11754022_s_at) / Fold change /veh GAP43 (11754022_s_at) / RFU A4GNT (11735810_at) / Fold change /veh A4GNT (11735810_at) / RFU PRB3 (11715151_x_at) / Fold change /veh PRB3 (11715151_x_at) / RFU TUBB4B (11761932_at) / Fold change /veh TUBB4B (11761932_at) / RFU CAPN14 (11732068_a_at) / Fold change /veh CAPN14 (11732068_a_at) / RFU TMCC2 (11721928_a_at) / Fold change /veh TMCC2 (11721928_a_at) / RFU IRGQ (11745062_a_at) / Fold change /veh IRGQ (11745062_a_at) / RFU FAM174B (11720279_a_at) / Fold change /veh FAM174B (11720279_a_at) / RFU TMPRSS4 (11748680_a_at) / Fold change /veh TMPRSS4 (11748680_a_at) / RFU FAM212B (11763350_a_at) / Fold change /veh FAM212B (11763350_a_at) / RFU PLEKHG5 (11743358_a_at) / Fold change /veh PLEKHG5 (11743358_a_at) / RFU ZSCAN30 (11745921_a_at) / Fold change /veh ZSCAN30 (11745921_a_at) / RFU CMKLR1 (11741424_a_at) / Fold change /veh CMKLR1 (11741424_a_at) / RFU LOC101060620 /// MAPK8IP1 (11723275_at) / Fold change /veh LOC101060620 /// MAPK8IP1 (11723275_at) / RFU SPTSSB (11747773_x_at) / Fold change /veh SPTSSB (11747773_x_at) / RFU PRSS12 (11739890_at) / Fold change /veh PRSS12 (11739890_at) / RFU BIN1 (11741810_x_at) / Fold change /veh BIN1 (11741810_x_at) / RFU WNT11 (11732464_a_at) / Fold change /veh WNT11 (11732464_a_at) / RFU C10orf10 (11716521_a_at) / Fold change /veh C10orf10 (11716521_a_at) / RFU C5orf56 (11738089_at) / Fold change /veh C5orf56 (11738089_at) / RFU CYB561 (11721691_x_at) / Fold change /veh CYB561 (11721691_x_at) / RFU ANKRD19P (11752326_a_at) / Fold change /veh ANKRD19P (11752326_a_at) / RFU OR2T12 /// OR2T33 /// OR2T8 (11738714_s_at) / Fold change /veh OR2T12 /// OR2T33 /// OR2T8 (11738714_s_at) / RFU VCAN (11748164_a_at) / Fold change /veh VCAN (11748164_a_at) / RFU JSRP1 (11732532_at) / Fold change /veh JSRP1 (11732532_at) / RFU KRTAP10-11 (11738290_x_at) / Fold change /veh KRTAP10-11 (11738290_x_at) / RFU MYO3A (11730013_a_at) / Fold change /veh MYO3A (11730013_a_at) / RFU EBF3 (11725865_a_at) / Fold change /veh EBF3 (11725865_a_at) / RFU CAMK2N1 (11719241_x_at) / Fold change /veh CAMK2N1 (11719241_x_at) / RFU C5orf56 (11738088_a_at) / Fold change /veh C5orf56 (11738088_a_at) / RFU OLFML3 (11715873_a_at) / Fold change /veh OLFML3 (11715873_a_at) / RFU LOC100653217 /// NTM (11731650_a_at) / Fold change /veh LOC100653217 /// NTM (11731650_a_at) / RFU MAPK11 (11762145_a_at) / Fold change /veh MAPK11 (11762145_a_at) / RFU FIZ1 (11724087_x_at) / Fold change /veh FIZ1 (11724087_x_at) / RFU OASL (11726364_x_at) / Fold change /veh OASL (11726364_x_at) / RFU SOX15 (11748057_x_at) / Fold change /veh SOX15 (11748057_x_at) / RFU CD79A (11719716_a_at) / Fold change /veh CD79A (11719716_a_at) / RFU HIST1H1D (11736915_at) / Fold change /veh HIST1H1D (11736915_at) / RFU CASKIN2 (11723855_a_at) / Fold change /veh CASKIN2 (11723855_a_at) / RFU LOC730098 (11760151_x_at) / Fold change /veh LOC730098 (11760151_x_at) / RFU OR4N2 (11742367_at) / Fold change /veh OR4N2 (11742367_at) / RFU PRRT2 (11749266_a_at) / Fold change /veh PRRT2 (11749266_a_at) / RFU SNX32 (11753110_a_at) / Fold change /veh SNX32 (11753110_a_at) / RFU CDHR5 (11726645_a_at) / Fold change /veh CDHR5 (11726645_a_at) / RFU RCAN1 (11760418_a_at) / Fold change /veh RCAN1 (11760418_a_at) / RFU FAM167A (11723789_a_at) / Fold change /veh FAM167A (11723789_a_at) / RFU FAM26E (11764081_at) / Fold change /veh FAM26E (11764081_at) / RFU ISYNA1 (11749810_s_at) / Fold change /veh ISYNA1 (11749810_s_at) / RFU ACY1 (11761880_at) / Fold change /veh ACY1 (11761880_at) / RFU 11764098_at / Fold change /veh 11764098_at / RFU SAMD14 (11745864_x_at) / Fold change /veh SAMD14 (11745864_x_at) / RFU NPB (11741838_a_at) / Fold change /veh NPB (11741838_a_at) / RFU TMPRSS6 (11731388_a_at) / Fold change /veh TMPRSS6 (11731388_a_at) / RFU KRTAP10-2 (11738614_at) / Fold change /veh KRTAP10-2 (11738614_at) / RFU ARHGAP8 /// PRR5-ARHGAP8 (11727945_x_at) / Fold change /veh ARHGAP8 /// PRR5-ARHGAP8 (11727945_x_at) / RFU KRTAP5-7 /// NADSYN1 (11734609_at) / Fold change /veh KRTAP5-7 /// NADSYN1 (11734609_at) / RFU RASL12 (11751679_a_at) / Fold change /veh RASL12 (11751679_a_at) / RFU CDKN2B (11736163_a_at) / Fold change /veh CDKN2B (11736163_a_at) / RFU PRF1 (11729649_at) / Fold change /veh PRF1 (11729649_at) / RFU, ZNF638 /// ZNF638-IT1 / Fold change vs veh, ZNF638 /// ZNF638-IT1 / RFU, PANK3 / Fold change vs veh, PANK3 / RFU, SH3YL1 / Fold change vs veh, SH3YL1 / RFU, ZEB2 / Fold change vs veh, ZEB2 / RFU, NRIP1 / Fold change vs veh, NRIP1 / RFU, PTTG1IP / Fold change vs veh, PTTG1IP / RFU, CAPN2 / Fold change vs veh, CAPN2 / RFU, MED14 / Fold change vs veh, MED14 / RFU, SNORA58 / Fold change vs veh, SNORA58 / RFU, C1orf63 / Fold change vs veh, C1orf63 / RFU, LRRFIP1 / Fold change vs veh, LRRFIP1 / RFU, NDUFAF7 / Fold change vs veh, NDUFAF7 / RFU, SLC12A2 / Fold change vs veh, SLC12A2 / RFU, IBTK / Fold change vs veh, IBTK / RFU, ESF1 / Fold change vs veh, ESF1 / Fold change vs veh, TMEM50B / RFU, TAOK1 / Fold change vs veh, TAOK1 / RFU, ACBD3 / Fold change vs veh, ACBD3 / RFU, TMA16 / Fold change vs veh, TMA16 / RFU, RWDD3 / Fold change vs veh, RWDD3 / RFU, BCAT1 / Fold change vs veh, BCAT1 / RFU, EDEM3 / Fold change vs veh, EDEM3 / RFU, TMEM33 / Fold change vs veh, TMEM33 / RFU, WDR75 / Fold change vs veh, WDR75 / RFU, AHCTF1 / Fold change vs veh, AHCTF1 / RFU, TFRC / Fold change vs veh, TFRC / RFU, ZDHHC17 / Fold change vs veh, ZDHHC17 / RFU, NOM1 / Fold change vs veh, NOM1 / RFU, ARL8B / Fold change vs veh, ARL8B / RFU, ZBTB11 / Fold change vs veh, ZBTB11 / RFU, TAMM41 / Fold change vs veh, TAMM41 / RFU, KIAA1704 /// LOC100996395 / Fold change vs veh, KIAA1704 /// LOC100996395 / RFU, ING1 / Fold change vs veh, ING1 / RFU, TRMT61B / Fold change vs veh, TRMT61B / RFU, FUBP3 / Fold change vs veh, FUBP3 / RFU, TP53 / Fold change vs veh, TP53 / RFU, TNKS2 / Fold change vs veh, TNKS2 / RFU, ZFP14 / Fold change vs veh, ZFP14 / RFU, ACTR2 / Fold change vs veh, ACTR2 / RFU, PPP3R1 / Fold change vs veh, PPP3R1 / RFU, PIK3R1 / Fold change vs veh, PIK3R1 / RFU, HNRNPA1 / Fold change vs veh, HNRNPA1 / RFU, RNF170 / Fold change vs veh, RNF170 / RFU, ZNF28 / Fold change vs veh, ZNF28 / RFU, RNGTT / Fold change vs veh, RNGTT / RFU, OGT / Fold change vs veh, OGT / RFU, BRD1 / Fold change vs veh, BRD1 / RFU, MARS / Fold change vs veh, MARS / RFU, ZNF655 / Fold change vs veh, ZNF655 / RFU, FAHD1 / Fold change vs veh, FAHD1 / RFU, BDP1 / Fold change vs veh, BDP1 / RFU, LRRCC1 / Fold change vs veh, LRRCC1 / RFU, ARID1A / Fold change vs veh, ARID1A / RFU, ZNF146 / Fold change vs veh, ZNF146 / RFU, ZNF330 / Fold change vs veh, ZNF330 / RFU, GPN3 / Fold change vs veh, GPN3 / RFU, C9orf123 / Fold change vs veh, C9orf123 / RFU, N4BP2L2 / Fold change vs veh, N4BP2L2 / RFU, ARFIP1 / Fold change vs veh, ARFIP1 / RFU, FAM179B / Fold change vs veh, FAM179B / RFU, BCL10 / Fold change vs veh, BCL10 / RFU, UHRF1BP1L / Fold change vs veh, UHRF1BP1L / RFU, BET1 / Fold change vs veh, BET1 / RFU, CNOT2 / Fold change vs veh, CNOT2 / RFU, ZNF268 / Fold change vs veh, ZNF268 / Fold change vs veh, ZNF507 / RFU, DGCR2 / Fold change vs veh, DGCR2 / RFU, WDSUB1 / Fold change vs veh, WDSUB1 / Fold change vs veh, HSP90B1 /// MIR3652 / RFU, ADSS / Fold change vs veh, ADSS / RFU, GK / Fold change vs veh, GK / RFU, ZNF148 / Fold change vs veh, ZNF148 / RFU, TAF9 / Fold change vs veh, TAF9 / RFU, SLC1A5 / Fold change vs veh, SLC1A5 / RFU, SLMO2 / Fold change vs veh, SLMO2 / RFU, ABCC4 / Fold change vs veh, ABCC4 / RFU, LOC101060439 /// RAP1B / Fold change vs veh, LOC101060439 /// RAP1B / RFU, RFX7 / Fold change vs veh, RFX7 / RFU, GTPBP10 / Fold change vs veh, GTPBP10 / RFU, CNEP1R1 / Fold change vs veh, CNEP1R1 / RFU, BIVM-ERCC5 /// ERCC5 / Fold change vs veh, BIVM-ERCC5 /// ERCC5 / RFU, ILF3 / Fold change vs veh, ILF3 / RFU 11762660_at / Fold change /veh 11762660_at / RFU VCAN (11757783_s_at) / Fold change /veh VCAN (11757783_s_at) / RFU DDX43 (11728927_at) / Fold change /veh DDX43 (11728927_at) / RFU KRT8 (11758188_x_at) / Fold change /veh KRT8 (11758188_x_at) / RFU NKD1 (11759106_at) / Fold change /veh NKD1 (11759106_at) / RFU SRD5A1 (11742802_a_at) / Fold change /veh SRD5A1 (11742802_a_at) / RFU TPSAB1 /// TPSB2 (11721975_s_at) / Fold change /veh TPSAB1 /// TPSB2 (11721975_s_at) / RFU GSTM3 (11746129_a_at) / Fold change /veh GSTM3 (11746129_a_at) / RFU IL23R (11737362_x_at) / Fold change /veh IL23R (11737362_x_at) / RFU TMEM51 (11727254_a_at) / Fold change /veh TMEM51 (11727254_a_at) / RFU PIWIL2 (11732686_x_at) / Fold change /veh PIWIL2 (11732686_x_at) / RFU ORM1 (11744905_x_at) / Fold change /veh ORM1 (11744905_x_at) / RFU CCDC152 (11743942_at) / Fold change /veh CCDC152 (11743942_at) / RFU ECM1 (11717891_a_at) / Fold change /veh ECM1 (11717891_a_at) / RFU IL23R (11748794_a_at) / Fold change /veh IL23R (11748794_a_at) / RFU TNFAIP8L3 (11732012_x_at) / Fold change /veh TNFAIP8L3 (11732012_x_at) / RFU MBOAT4 (11741988_at) / Fold change /veh MBOAT4 (11741988_at) / RFU 11764193_at / Fold change /veh 11764193_at / RFU TMEM53 (11763286_at) / Fold change /veh TMEM53 (11763286_at) / RFU MAGEB2 (11727129_at) / Fold change /veh MAGEB2 (11727129_at) / RFU TMEM200A (11744735_a_at) / Fold change /veh TMEM200A (11744735_a_at) / RFU CCDC152 (11751479_a_at) / Fold change /veh CCDC152 (11751479_a_at) / RFU FAM211A (11726209_a_at) / Fold change /veh FAM211A (11726209_a_at) / RFU RGS16 (11746705_a_at) / Fold change /veh RGS16 (11746705_a_at) / RFU VCAN (11755009_s_at) / Fold change /veh VCAN (11755009_s_at) / RFU RHOB (11743442_s_at) / Fold change /veh RHOB (11743442_s_at) / RFU RGS16 (11720943_a_at) / Fold change /veh RGS16 (11720943_a_at) / RFU RGS16 (11720944_at) / Fold change /veh RGS16 (11720944_at) / RFU, VPS4B / Fold change vs veh, VPS4B / RFU, CREB1 / Fold change vs veh, CREB1 / RFU, DNAJC13 / Fold change vs veh, DNAJC13 / RFU, GNAQ / Fold change vs veh, GNAQ / RFU, CDK5R1 / Fold change vs veh, CDK5R1 / RFU, ZRANB3 / Fold change vs veh, ZRANB3 / RFU, CUL4A / Fold change vs veh, CUL4A / RFU, CCNY / Fold change vs veh, CCNY / RFU, UFL1 / Fold change vs veh, UFL1 / RFU, COG3 / Fold change vs veh, COG3 / RFU, DIAPH2 / Fold change vs veh, DIAPH2 / RFU, SKA2 / Fold change vs veh, SKA2 / RFU, AFF3 / Fold change vs veh, AFF3 / RFU, LMF1 / Fold change vs veh, LMF1 / RFU, IPO11 / Fold change vs veh, IPO11 / RFU, DFFB / Fold change vs veh, DFFB / RFU, FOXP1 / Fold change vs veh, FOXP1 / RFU, CARD8 / Fold change vs veh, CARD8 / RFU, STRN3 / Fold change vs veh, STRN3 / RFU, ADK / Fold change vs veh, ADK / RFU, RASSF2 / Fold change vs veh, RASSF2 / RFU, WIPF1 / Fold change vs veh, WIPF1 / RFU, LARP1B / Fold change vs veh, LARP1B / RFU, RASA1 / Fold change vs veh, RASA1 / RFU, RB1 / Fold change vs veh, RB1 / RFU, PPFIA1 / Fold change vs veh, PPFIA1 / RFU, MAT2A / Fold change vs veh, MAT2A / RFU, CCT5 / Fold change vs veh, CCT5 / RFU, WDR92 / Fold change vs veh, WDR92 / RFU, CUX1 / Fold change vs veh, CUX1 / RFU, TTC7A / Fold change vs veh, TTC7A / RFU, TMEM135 / Fold change vs veh, TMEM135 / RFU, DEPTOR / Fold change vs veh, DEPTOR / RFU, CPM / Fold change vs veh, CPM / RFU, DNAJB6 / Fold change vs veh, DNAJB6 / RFU, CACNA2D3 / Fold change vs veh, CACNA2D3 / RFU, DTX4 / Fold change vs veh, DTX4 / RFU, TFCP2 / Fold change vs veh, TFCP2 / RFU, GMCL1 /// GMCL1P1 / Fold change vs veh, GMCL1 /// GMCL1P1 / RFU, AEBP2 / Fold change vs veh, AEBP2 / RFU, SNHG1 /// SNORD22 /// SNORD25 /// SNORD26 /// SNORD27 /// SNORD28 /// SNORD29 /// SNORD31 / Fold change vs veh, SNHG1 /// SNORD22 /// SNORD25 /// SNORD26 /// SNORD27 /// SNORD28 /// SNORD29 /// SNORD31 / Fold change (Aza/veh), C12orf56 (ProbeSet 11735607_a_at) / Fold change (ACY-1035/veh), C12orf56 (ProbeSet 11735607_a_at) / Fold change (Aza/veh), FGFR1OP (ProbeSet 11751329_s_at) / Fold change (ACY-1035/veh), FGFR1OP (ProbeSet 11751329_s_at) / Fold change (Aza/veh), VPS36 (ProbeSet 11739960_a_at) / Fold change (ACY-1035/veh), VPS36 (ProbeSet 11739960_a_at) / RFU SYPL1 (11715823_x_at) / Fold change /veh SYPL1 (11715823_x_at) / RFU IGFBP7 (11715501_s_at) / Fold change /veh IGFBP7 (11715501_s_at) / RFU REEP3 (11722064_at) / Fold change /veh REEP3 (11722064_at) / RFU IGLL1 (11728026_x_at) / Fold change /veh IGLL1 (11728026_x_at): dose or concentration left out as unconfirmed
# Conditions: MV-4-11 cells, 48 hours
smiles,measurement,value
Nc1ccc(-c2cccs2)cc1NC(=O)c1ccc2c(c1)cc(C1CC1)n2CCN1CCOCC1 [ACY-1035],Fold change /veh SOX15 (11748057_x_at),0.91
